Reference: the NIST ThermoML archive (doi:10.1016/j.jct.2015.10.017)
± gives the expanded uncertainty stated by the source.

Test: mn = molality of the nth substance listed, in mol/kg
Conditions: 100 kPa, Liquid, Falling or rolling sphere viscometry

O=P([O-])([O-])O.[Na+].[Na+] [disodium hydrogen phosphate] + O
viscosity [mPa·s]
Conditions | 288.15 K | 293.15 K | 298.15 K | 303.15 K | 308.15 K
m1 = 0.01669 | 1.056 ± 0.21 | 0.9429 ± 0.19 | 0.8421 ± 0.17 | 0.806 ± 0.16 | 0.7281 ± 0.15
m1 = 0.03487 | 1.069 ± 0.21 | 0.9556 ± 0.19 | 0.8532 ± 0.17 | 0.8146 ± 0.16 | 0.7367 ± 0.15
m1 = 0.05412 | 1.084 ± 0.22 | 0.969 ± 0.19 | 0.865 ± 0.17 | 0.8238 ± 0.16 | 0.7459 ± 0.15
m1 = 0.06194 | 1.089 ± 0.22 | 0.9745 ± 0.2 | 0.8698 ± 0.17 | 0.8275 ± 0.17 | 0.7496 ± 0.15
m1 = 0.08565 | 1.107 ± 0.22 | 0.9911 ± 0.2 | 0.8843 ± 0.18 | 0.8387 ± 0.17 | 0.7608 ± 0.15
m1 = 0.162 | 1.164 ± 0.23 | 1.044 ± 0.21 | 0.931 ± 0.19 | 0.8749 ± 0.18 | 0.797 ± 0.16
m1 = 0.255 | 1.234 ± 0.25 | 1.109 ± 0.22 | 0.9879 ± 0.2 | 0.9189 ± 0.18 | 0.841 ± 0.17
m1 = 0.3161 | 1.28 ± 0.26 | 1.152 ± 0.23 | 1.025 ± 0.21 | 0.9479 ± 0.19 | 0.87 ± 0.17
m1 = 0.4813 | 1.404 ± 0.28 | 1.268 ± 0.25 | 1.126 ± 0.23 | 1.026 ± 0.21 | 0.9483 ± 0.19
m1 = 0.6261 | 1.513 ± 0.3 | 1.369 ± 0.27 | 1.215 ± 0.24 | 1.095 ± 0.22 | 1.017 ± 0.2
m1 = 0.7501 | 1.606 ± 0.32 | 1.456 ± 0.29 | 1.291 ± 0.26 | 1.154 ± 0.23 | 1.076 ± 0.22
m1 = 0.8501 | 1.681 ± 0.34 | 1.525 ± 0.31 | 1.352 ± 0.27 | 1.201 ± 0.24 | 1.123 ± 0.23
m1 = 0.959 | 1.762 ± 0.35 | 1.602 ± 0.32 | 1.419 ± 0.28 | 1.253 ± 0.25 | 1.175 ± 0.24

O=P([O-])([O-])O.[K+].[K+] [dipotassium hydrogen phosphate] + O
viscosity [mPa·s]
Conditions | 288.15 K | 293.15 K | 298.15 K | 303.15 K | 308.15 K
m1 = 0.01682 | 1.05 ± 0.21 | 0.9382 ± 0.19 | 0.8385 ± 0.17 | 0.804 ± 0.16 | 0.7261 ± 0.15
m1 = 0.03476 | 1.058 ± 0.21 | 0.9456 ± 0.19 | 0.8455 ± 0.17 | 0.8103 ± 0.16 | 0.7324 ± 0.15
m1 = 0.05442 | 1.066 ± 0.21 | 0.9538 ± 0.19 | 0.8532 ± 0.17 | 0.8173 ± 0.16 | 0.7394 ± 0.15
m1 = 0.06215 | 1.069 ± 0.21 | 0.957 ± 0.19 | 0.8562 ± 0.17 | 0.82 ± 0.16 | 0.7421 ± 0.15
m1 = 0.08596 | 1.079 ± 0.22 | 0.9669 ± 0.19 | 0.8655 ± 0.17 | 0.8284 ± 0.17 | 0.7505 ± 0.15
m1 = 0.1633 | 1.112 ± 0.22 | 0.9989 ± 0.2 | 0.8957 ± 0.18 | 0.8556 ± 0.17 | 0.7777 ± 0.16
m1 = 0.2499 | 1.149 ± 0.23 | 1.035 ± 0.21 | 0.9296 ± 0.19 | 0.8861 ± 0.18 | 0.8082 ± 0.16
m1 = 0.3088 | 1.174 ± 0.23 | 1.059 ± 0.21 | 0.9526 ± 0.19 | 0.9068 ± 0.18 | 0.8289 ± 0.17
m1 = 0.4795 | 1.246 ± 0.25 | 1.13 ± 0.23 | 1.019 ± 0.2 | 0.9669 ± 0.19 | 0.889 ± 0.18
m1 = 0.628 | 1.309 ± 0.26 | 1.192 ± 0.24 | 1.077 ± 0.22 | 1.019 ± 0.2 | 0.9412 ± 0.19
m1 = 0.7511 | 1.361 ± 0.27 | 1.243 ± 0.25 | 1.126 ± 0.23 | 1.062 ± 0.21 | 0.9846 ± 0.2
m1 = 0.8468 | 1.401 ± 0.28 | 1.283 ± 0.26 | 1.163 ± 0.23 | 1.096 ± 0.22 | 1.018 ± 0.2
m1 = 0.9565 | 1.448 ± 0.29 | 1.328 ± 0.27 | 1.206 ± 0.24 | 1.135 ± 0.23 | 1.057 ± 0.21
